According to patent EP0781283B1, “TRIAZOLOPYRIDAZINES PROCESS AND INTERMEDIATES FOR THEIR PREPARATION AND THEIR USE AS MEDICAMENTS” (Takeda Chemical Industries, Ltd., priority 1994, dated 1996):

Tests used:
[1] = tested on: PAF-induced bronchoconstriction; experiment: Effect on platelet activating factor (PAF)-induced bronchoconstriction in guinea pig (Konzett-Roessler method); format: in vivo; settings: P.O., one hour before PAF (1 µg/kg i.v.), male Hartley guinea pigs
Description: Male Hartley guinea pigs (body weights about 500 g) were used. Bronchoconstriction induced by PAF (1 µg/kg i.v.) in guinea pigs was measured according to the method of Konzett-Roessler. The guinea pig immobilized in the dorsal position, tracheotomy was anesthetized with urethane (1.5 g/kg i.v.) and the trachea was connected through a cannula to a respirator. The side branch of the tracheal cannula was connected to a broncho transducer (Model 7020, Ugobasile). The volume of overflow air was recorded on a rectigraph (Recte-Hori-8S, San-ei Sokki) through the brancho transducer. After guinea pig was given gallamine (1 mg/kg i.v.), the guinea pig was treated by PAF (1 µg/kg). The drug suspended in a 5% solution of gum arabic was administered orally in a dose of 3 mg/kg or 1 mg/kg one hour before PAF treatment.

[2] = tested on: Guinea Pig Eosinophils; experiment: Chemotaxis inhibition assay (LTB4-induced chemotaxis of guinea pig eosinophils); format: cell-based; settings: test drug final concentration 10^-5 M, LTB4 10^-8 M, 2 hours; for inhibition at 10 µM: Cavia porcellus, Eosinophil, read-out: Chemotaxis Inhibition Rate (%)
Description: Male Hartley guinea pigs (body weights approx. 300 g) were intraperitoneally treated with 2 ml of horse serum (Whittaker Bioproducts) once a week for 8 consecutive weeks. Forty-eight (48) hours after the last treatment, 75 ml of physiological saline was infused into the peritoneal cavity and the lavage was collected and centrifuged at 400 G (1500 rpm) for 5 minutes. The pellet was suspended in 5 ml of Percoll discontinuous density, gradients (specific gravity d=1.07), layered on top of the Percoll suspensions (specific gravity d=1.112:5 ml, d=1.095:10 ml, d=1.090:10 ml, d=1.085:7 ml) and centrifuged (18°C) at 1000 G (2200 rpm) for 30 minutes. The cell layer formed in the boundary zone between the d=1.112 and d=1.095 layers was collected. The collected cell sediment was subjected to hypotonic treatment (suspended in water for 30 seconds) to remove the contaminant erythrocytes.
The sediment was washed three times with Hanks solution containing 10 mM Hepes (Dojin Kagaku) (Hanks-Hepes) and suspended in Hanks-Hepes containing 2% (w/v) human serum albumin (Wako Pure Chemical) (Hanks-Hepes-HSA) at a concentration of 5.56 x 10^6 celles/ml. The eosinophil purity was 92-96% and the viability of eosinophils was not less than 98%.
To a 24-well petri dish, which serves as a lower chamber, 600 µl of LTB4 (final concentration 10^-8 M, Cascade Biochemical Ltd.) in suspension in Hanks-Hepes-HSA solution, was transferred, followed by incubation at 37°C for 30 minutes in carbon dioxide incubator. Separately, 200 µl (5 × 10^6 cells/ml) of eosinophil suspension, previously incubated at 37°C for 15 minutes in a constant-temperature chamber, was added to Chemotaxicell (polycarbonate membrane, pore size 3 µm, thickness 10 µm), which serves as an upper chamber, after the upper chamber was attached to the 24-well petri dish. After 2 hours of reaction in the carbon dioxide incubator, the Chemotaxicell was removed; 60 µl of a 2% (w/v) solution of EDTA in physiological saline was added to the liquid in the lower chamber. After the mixture was ice cooled, the cells migrating into the lower chamber liquid were counted using a blood cell counter (Coulter Counter (trade name)). The test drug, dissolved in dimethyl formamide (DMF), was added to both the upper and lower chambers to a final concentration of 10^-5 M. [formula]

CCc1cc2ncnn2nc1OCC(C)(C)CS(N)(=O)=O [Example 1, 6-(2,2-dimethyl-3-sulfamoyl-l-propoxy)-7-ethyl[1,2,4]triazolo[1,5-b]pyridazine]
% Inhibition of PAF-induced bronchoconstriction ([1]; 1 mg/kg): 70% | Chemotaxis Inhibition Rate (%) [2]: 35%

CCCc1cc2ncnn2nc1OCC(C)(C)CS(N)(=O)=O [Example 2, 6-(2,2-dimethyl-3-sulfamoyl-1-propoxy)-7-n-propyl[1,2,4]triazolo[1,5-b]pyridazine]
% Inhibition of PAF-induced bronchoconstriction ([1]; 1 mg/kg): 67% | inhibition at 10 µM [2]: 24%

CC(C)c1cc2ncnn2nc1OCC(C)(C)CS(N)(=O)=O [Example 3, 6-(2,2-dimethyl-3-sulfamoyl-1-propoxy)-7-isopropyl[1,2,4]triazolo[1,5-b]pyridazine]
% Inhibition of PAF-induced bronchoconstriction ([1]; 1 mg/kg): 72%

CCC(CC)(COc1nn2ncnc2cc1C(C)C)CS(N)(=O)=O [Example 4, 6-(2,2-diethyl-3-sulfamoyl-1-propoxy)-7-isopropyl[1,2,4]triazolo[1,5-b]pyridazine]
% Inhibition of PAF-induced bronchoconstriction ([1]; 1 mg/kg): 60% | inhibition at 10 µM [2]: 23%

CC(C)Cc1cc2ncnn2nc1OCC(C)(C)CS(N)(=O)=O [Example 5, 6-(2,2-dimethyl-3-sulfamoyl-1-propoxy)-7-isobutyl[1,2,4]triazolo[1,5-b]pyridazine]
inhibition at 10 µM [2]: 27%

CC(C)(COc1nn2ncnc2cc1C(C)(C)C)CS(N)(=O)=O [Example 6, 6-(2,2-dimethyl-3-sulfamoyl-1-propoxy)-7-t-butyl[1,2,4]triazolo[1.5-b]pyridazine]
% Inhibition of PAF-induced bronchoconstriction ([1]; 1 mg/kg): 43% | % Inhibition of PAF-induced bronchoconstriction ([1]; 3 mg/kg): 83% | Chemotaxis Inhibition Rate (%) [2]: 38%

CCCCCCc1cc2ncnn2nc1OCC(C)(C)CS(N)(=O)=O [Example 7, 6-(2,2-dimethyl-3-sulfamoyl-1-propoxy)-7-n-hexyl[1,2,4]triazolo[1,5-b]pyridazine]
inhibition at 10 µM [2]: 24%

Cc1cc2ncnn2nc1OCC(C)(C)CS(N)(=O)=O [Reference compound, 6-(2,2-dimethyl-3-sulfamoyl-1-propoxy)-7-methyl[1,2,4]triazolo[1,5-b]pyridazine, reference compound]
% Inhibition of PAF-induced bronchoconstriction ([1]; 3 mg/kg): 25% | inhibition at 10 µM [2]: 12%
